From ChEMBL document CHEMBL3046649, “Fungitoxic and Phytotoxic Activities of Cinnamic Acid Esters and Amides” (2000) come the findings set out here.

Structures are written as SMILES.

Assay [1] deals with Brassica rapa subsp. chinensis. The assay is described as follows: whole plant or invertebrate. To be noted: 72 h, read-out: GI. In kind it is functional.
Description: Phytotoxicity against Brassica rapa subsp. chinensis assessed as growth inhibition of hypocotyl at 100 ppm treated to seeds after 3 days
Assay [2] relates to Brassica rapa subsp. chinensis. The assay is described as follows: whole plant or invertebrate. In kind it is functional. To be noted: 72 h, read-out: GI. The source holds these as a separate data set.
Description: Phytotoxicity against Brassica rapa subsp. chinensis assessed as growth inhibition of radicle at 100 ppm treated to seeds after 3 days
For assay [3], the system named is Pythium. As to the kind of experiment: microbe, parasite or virus in culture. In kind it is functional. To be noted: read-out: GI.
Description: Fungitoxic activity against Pythium sp. assessed as mycelial growth inhibition at 100 ppm after 4 to 5 days by agar dilution method
For assay [4], the system named is Athelia rolfsii. As to the kind of experiment: microbe, parasite or virus in culture. Type of assay: functional. To be noted: Agroathelia rolfsii, read-out: GI.
Description: Fungitoxic activity against Athelia rolfsii assessed as mycelial growth inhibition at 100 ppm after 4 to 5 days by agar dilution method
In assay [5] the test system is Athelia rolfsii. The assay is described as follows: Fungitoxic activity against Athelia rolfsii assessed as mycelial growth inhibition at 10 ppm after 4 to 5 days by agar dilution method. Type of assay: functional. To be noted: Agroathelia rolfsii; read-out: GI.
Assay [6] deals with Pythium. The assay is described as follows: Fungitoxic activity against Pythium sp. assessed as mycelial growth inhibition at 10 ppm after 4 to 5 days by agar dilution method. To be noted: read-out: GI.

For `CC(C)CNC(=O)/C=C/c1ccccc1` [N-ISOBUTYLCINNAMAMIDE], the inhibition of growth at 100 ppm in assay [1] was determined as 34%; in assay [2], 78%; in the assay with Pythium [3], 74%; in the assay with Athelia rolfsii [4], 82%. For the same compound, the values for the inhibition of growth at 10 ppm in the assay with Athelia rolfsii [5] and in the assay on Pythium [6] were 29% and 23%, respectively.
For the compound `COC(=O)/C=C/c1ccc(Cl)cc1` [METHYL 3-(4-CHLOROPHENYL)ACRYLATE], the inhibition of growth at 100 ppm was 84% in assay [1], 93% in assay [2], 99% in the assay with Pythium [3] and 94% with Athelia rolfsii [4]. The inhibition of growth at 10 ppm was 52% in the assay with Athelia rolfsii [5] and 19% in the assay on Pythium [6].
`CCC(C)NC(=O)/C=C/c1ccccc1` (stereo unspecified) [N-SEC-BUTYLCINNAMAMIDE]: the inhibition of growth at 100 ppm in assay [1] was found to be 56%; in assay [2], 77%; in the assay with Pythium [3], 47%; with Athelia rolfsii [4], 95%. Further, the inhibition of growth at 10 ppm in the assay with Athelia rolfsii [5] stood at 35%; in the assay with Pythium [6], 0%.
As to `CCCCCOC(=O)/C=C/c1ccc(Cl)cc1Cl` [PENTYL 3-(2,4-DICHLOROPHENYL)ACRYLATE], the inhibition of growth at 100 ppm was found to be 22% in assay [1], 0% in assay [2], 43% with Pythium [3] and 75% in the assay on Athelia rolfsii [4]. Also, the inhibition of growth at 10 ppm amounted to 14% with Athelia rolfsii [5] and 9% with Pythium [6].
Regarding `CCOC(=O)/C=C/c1ccc(C(C)C)cc1` [ETHYL 3-(4-ISOPROPYLPHENYL)ACRYLATE], the inhibition of growth at 100 ppm in assay [1] was found to be 44%; in assay [2] it was 0%; in the assay on Pythium [3] it was 92%; in the assay on Athelia rolfsii [4] it was 78%. For the same compound, the inhibition of growth at 10 ppm in the assay on Athelia rolfsii [5] is 24%; in the assay on Pythium [6], 14%.
Turning to `CCCNC(=O)/C=C/c1ccc(C(C)C)cc1`, the inhibition of growth at 100 ppm was found to be 30% in assay [1], 52% in assay [2], 84% in the assay on Pythium [3] and 88% in the assay on Athelia rolfsii [4]. The inhibition of growth at 10 ppm in the assay on Athelia rolfsii [5] came to 28%; with Pythium [6] it was 41%.
As to `C=CCc1ccc(OC(=O)/C=C/c2ccc(Cl)cc2Cl)c(OC)c1` [4-ALLYL-2-METHOXYPHENYL 3-(2,4-DICHLOROPHENYL)ACRYLATE], the inhibition of growth at 100 ppm worked out at 28% in assay [1], 6% in assay [2], 67% in the assay on Pythium [3] and 87% in the assay on Athelia rolfsii [4]. Also, the results for the inhibition of growth at 10 ppm in the assay with Athelia rolfsii [5] and in the assay with Pythium [6] were 27% and 23%, respectively.
For the compound `CCCOC(=O)/C=C/c1ccc(Cl)cc1Cl` [PROPYL 3-(2,4-DICHLOROPHENYL)ACRYLATE], the inhibition of growth at 100 ppm stood at 41% in assay [1], 79% in assay [2], 77% with Pythium [3] and 84% in the assay with Athelia rolfsii [4]. The inhibition of growth at 10 ppm in the assay on Athelia rolfsii [5] was determined as 32%; in the assay on Pythium [6] it was 14%.
As to `CCCCCOC(=O)/C=C/c1ccc(Cl)cc1` [PENTYL 3-(4-CHLOROPHENYL)ACRYLATE], the inhibition of growth at 100 ppm in assay [1] worked out at 27%; in assay [2], 22%; in the assay with Pythium [3], 58%; in the assay on Athelia rolfsii [4] it was 82%. Also, the results for the inhibition of growth at 10 ppm in the assay on Athelia rolfsii [5] and in the assay on Pythium [6] were 20% and 17%, respectively.
With `C=CCNC(=O)/C=C/c1ccccc1`, the inhibition of growth at 100 ppm stood at 63% in assay [1], 64% in assay [2], 52% in the assay with Pythium [3] and 90% in the assay with Athelia rolfsii [4]. The figures for the inhibition of growth at 10 ppm in the assay on Athelia rolfsii [5] and with Pythium [6] were 6% and 20%, respectively.
For `CC(C)NC(=O)/C=C/c1ccc(Cl)cc1` [3-(4-CHLOROPHENYL)-N-ISOPROPYLACRYLAMIDE], the inhibition of growth at 100 ppm in assay [1] worked out at 26%; in assay [2], 57%; in the assay on Pythium [3] it was 45%; in the assay with Athelia rolfsii [4] it was 94%. The inhibition of growth at 10 ppm amounted to 66% in the assay on Athelia rolfsii [5] and 20% with Pythium [6].
In the case of `CCOC(=O)/C=C/c1ccccc1` [ETHYL CINNAMATE], the inhibition of growth at 100 ppm worked out at 26% in assay [1], 0% in assay [2], 57% in the assay on Pythium [3] and 63% with Athelia rolfsii [4]. For the same compound, the inhibition of growth at 10 ppm with Athelia rolfsii [5] was 36%; with Pythium [6], 14%.
Consider `CC(C)CNC(=O)/C=C/c1ccc(Cl)cc1` [3-(4-CHLOROPHENYL)-N-ISOBUTYLACRYLAMIDE], for which the inhibition of growth at 100 ppm in assay [1] was 43%; in assay [2], 69%; in the assay with Pythium [3] it was 73%; in the assay with Athelia rolfsii [4] it was 89%. The results for the inhibition of growth at 10 ppm in the assay on Athelia rolfsii [5] and in the assay with Pythium [6] were 33% and 50%, respectively.
`CC(C)(C)NC(=O)/C=C/c1ccccc1` [N-TERT-BUTYLCINNAMAMIDE]: the inhibition of growth at 100 ppm was determined as 34% in assay [1], 73% in assay [2], 71% with Pythium [3] and 92% with Athelia rolfsii [4]. The inhibition of growth at 10 ppm in the assay on Athelia rolfsii [5] was found to be 26%; in the assay with Pythium [6], 14%.
`CC(C)NC(=O)/C=C/c1ccccc1` [N-ISOPROPYLCINNAMAMIDE]: the inhibition of growth at 100 ppm in assay [1] came out at 39%; in assay [2], 76%; in the assay with Pythium [3], 47%; in the assay with Athelia rolfsii [4], 96%. Further, the values for the inhibition of growth at 10 ppm in the assay on Athelia rolfsii [5] and with Pythium [6] were 17% and 0%, respectively.
For `O=C(/C=C/c1ccc(Cl)cc1)OCCc1ccccc1` [PHENETHYL 3-(4-CHLOROPHENYL)ACRYLATE], the inhibition of growth at 100 ppm in assay [1] is 36%; in assay [2], 31%; in the assay with Pythium [3], 60%; in the assay on Athelia rolfsii [4], 84%. Further, the inhibition of growth at 10 ppm was 9% in the assay on Athelia rolfsii [5] and 13% in the assay on Pythium [6].
As to `CC(C)=CCC/C(C)=C/COC(=O)/C=C/c1ccc(Cl)cc1`, the inhibition of growth at 100 ppm in assay [1] worked out at 41%; in assay [2], 48%; in the assay on Pythium [3] it was 86%; in the assay on Athelia rolfsii [4] it was 94%. The inhibition of growth at 10 ppm in the assay with Athelia rolfsii [5] stood at 17%; in the assay on Pythium [6], 9%.
On to `COC(=O)/C=C/c1ccc(Cl)cc1Cl` [METHYL 3-(2,4-DICHLOROPHENYL)ACRYLATE], for which the inhibition of growth at 100 ppm in assay [1] was found to be 66%; in assay [2], 84%; in the assay on Pythium [3] it was 68%; in the assay with Athelia rolfsii [4], 75%. Besides, the figures for the inhibition of growth at 10 ppm with Athelia rolfsii [5] and with Pythium [6] were 43% and 39%, respectively.
Consider `CCOC(=O)/C=C/c1ccc(Cl)cc1Cl` [ETHYL 3-(2,4-DICHLOROPHENYL)ACRYLATE], for which the inhibition of growth at 100 ppm was found to be 54% in assay [1], 29% in assay [2], 76% in the assay on Pythium [3] and 93% in the assay with Athelia rolfsii [4]. Moreover, the inhibition of growth at 10 ppm in the assay on Athelia rolfsii [5] was determined as 32%; in the assay on Pythium [6], 19%.
As for `CCC(C)OC(=O)/C=C/c1ccccc1` (stereo unspecified) [SEC-BUTYL CINNAMATE], the inhibition of growth at 100 ppm turned out to be 18% in assay [1], 20% in assay [2], 69% in the assay on Pythium [3] and 70% with Athelia rolfsii [4]. Moreover, the inhibition of growth at 10 ppm in the assay on Athelia rolfsii [5] is 40%; in the assay with Pythium [6], 21%.
Regarding `CCCNC(=O)/C=C/c1ccccc1` [N-PROPYLCINNAMAMIDE], the inhibition of growth at 100 ppm in assay [1] came out at 15%; in assay [2] it was 63%; in the assay on Pythium [3], 54%; with Athelia rolfsii [4] it was 89%. Besides, the figures for the inhibition of growth at 10 ppm in the assay on Athelia rolfsii [5] and in the assay on Pythium [6] were 26% and 17%, respectively.
For `CCOC(=O)/C=C/c1ccc(Cl)cc1` [ETHYL 3-(4-CHLOROPHENYL)ACRYLATE], the inhibition of growth at 100 ppm in assay [1] came out at 43%; in assay [2], 47%; in the assay on Pythium [3], 99%; in the assay with Athelia rolfsii [4], 97%. Further, the inhibition of growth at 10 ppm stood at 19% with Athelia rolfsii [5] and 8% in the assay on Pythium [6].
With `O=C(/C=C/c1ccc(Cl)cc1Cl)OCCOc1ccccc1`, the inhibition of growth at 100 ppm is 33% in assay [1], 8% in assay [2], 59% in the assay on Pythium [3] and 72% in the assay on Athelia rolfsii [4]. For the same compound, the inhibition of growth at 10 ppm in the assay on Athelia rolfsii [5] and in the assay on Pythium [6] was 14% throughout.
Consider `CCCCNC(=O)/C=C/c1ccc(C(C)C)cc1` [N-BUTYL-3-(4-ISOPROPYLPHENYL)ACRYLAMIDE], for which the inhibition of growth at 100 ppm in assay [1] was determined as 41%; in assay [2] it was 51%; in the assay on Pythium [3] it was 90%; in the assay with Athelia rolfsii [4], 92%. The inhibition of growth at 10 ppm in the assay on Athelia rolfsii [5] is 28%; with Pythium [6], 37%.
Take `CCCOC(=O)/C=C/c1ccc(C(C)C)cc1` [PROPYL 3-(4-ISOPROPYLPHENYL)ACRYLATE]: the inhibition of growth at 100 ppm worked out at 8% in assay [1], 5% in assay [2], 68% with Pythium [3] and 89% in the assay on Athelia rolfsii [4]. Moreover, the figures for the inhibition of growth at 10 ppm in the assay with Athelia rolfsii [5] and in the assay on Pythium [6] were 43% and 13%, respectively.
`CCCCNC(=O)/C=C/c1ccccc1` [N-BUTYLCINNAMAMIDE]: the inhibition of growth at 100 ppm in assay [1] stood at 50%; in assay [2], 71%; in the assay on Pythium [3], 84%; in the assay on Athelia rolfsii [4], 94%. The results for the inhibition of growth at 10 ppm in the assay with Athelia rolfsii [5] and in the assay on Pythium [6] were 45% and 33%, respectively.
